{"source": "patent US6562316B1", "about": "“Drug delivery system with two-step targeting” (priority 1997, dated 2003)", "conditions": "PEG-stabilized DSPC/Chol/PEG(2000)-DSPE liposome formulation (40 mg/ml total lipid, 12 mg/ml WSA1); buffer and serum; 48h incubation at 37° C.", "method": "The liposomes are loaded by use of citric acid pH-gradient. Liposomes are prepared in 500 mM citrate buffer with pH 4.0 The external medium is titrated to pH 7.7 with sodium carbonate. WSA is thereafter added and allowed to load for 20 minutes at 60° C. The final formulation contains 40 mg/ml of total lipid and 12 mg/ml of WSA1 which corresponds to about 1×10^5 WSA, or 1×10^6 10 B, per liposome."}
{"substance": "1,8-diamino-4-N-3- [12-(N-9-acridinyl-3-aminopropyl)-p-carborane-1-yl] propyl-4-azooctane hydrogen chloride [WSA1]", "values": [{"measurement": "encapsulated WSA 1 released", "result": "less than 15%"}]}
